These are literature values, as cited in publication PMC7108400 (Leukemia research, 2019).

SMILES strings stand for the structures.

For one data set, the system named is de novo AML. To be noted: cited from earlier work.
Another data set relates to AML. To be noted: azacitidine alone; cited from earlier work.

In the case of `O=C(CCCCCCC(=O)Nc1ccccc1)NO` [vorinostat], in the data set on de novo AML (median follow-up of 82 weeks), the Median overall survival was 82 weeks. Besides, in the data set on de novo AML (with idarubicin and ara-C), the All-grade cardiac events is recorded as 15%, the Diarrhea is 72% and the Nausea was 65%.
Consider `Nc1ncn([C@@H]2O[C@H](CO)[C@@H](O)[C@H]2O)c(=O)n1` [azacitidine], for which the “Grade ≥ 3 AEs” value in the data set with AML is 81%.
